# Results reported in US20150126573A1, “METHODS AND PHARMACEUTICAL COMPOSITIONS FOR PREVENTION OR TREATMENT OF CHRONIC OBSTRUCTIVE PULMONARY DISEASE” (INSERM (INSTITUT NATIONAL DE LA SANTE ET DE LA RECHERCHE …, priority 2012, published 2015).
# What was measured:
# Primary lung fibroblasts = assay: Single 24 h exposure of non-senescent lung fibroblasts to PGE2 (accelerated senescence and related inflammation); type: cell-based, human; details: for PGE2-induced SA-β gal and p21 expression: control fibroblasts (NS-C and S-C), antagonists 10 μM; for increase in IL-6, CX3CL1, FGF2, VEGF, MMP2 and TIMP2 induced by PGE2: fibroblasts, EP2 and EP4 antagonists
# From the text: Primary lung fibroblasts were isolated by the explant technique (Normand J and Karasek M A. In Vitro Cell Dev Biol Anim 1995; 31:447-455) from lung specimens obtained for lung tumor resection from 25 patients with COPD and 35 subjects without clinical, morphological or functional signs of COPD (controls) (Table 1). Controls were divided into non-smoker and smoker groups (NS-C, n=10 and S-C, n=25 respectively). Smoking status (current smokers or ex-smokers, defined by smoking cessation after more than 1 year (Lapperre T S et al., Respir Res 2007; 8:85; Savale L et al. Am J Respir Crit Care Med 2009), was considered in the analysis of the different results (Table 2). Classification of COPD severity was based on the 2003 Global initiative for chronic obstructive lung disease (GOLD) criteria (Rabe K F et al., Am J Respir Crit Care Med 2007; 176:532-555). Informed consent was obtained from all patients and the study was approved by the “Comite de Protection des Personnes Ile de France IX”.
# (§1) Fibroblasts were exposed to either PGE2 (0.5 to 50 ng ml^−1) or conditioned medium (CM) collected from fibroblasts incubated for 24 h. In different experiments cells were treated with inhibitors of COXs, agonists or antagonists of prostaglandin receptors EP2 and EP4, the antioxidant N-acetylcysteine (NAC), or the inhibitor of p53 transcriptional effects pifithriñ-α.
# (§2) Senescence was characterized by measuring cumulative population doubling levels (PDLs) (Holz O et al., Eur Respir J 2004; 24:575-579), telomere length (Savale L et al., Am J Respir Crit Care Med 2009), senescence associated β-galactosidase activity (SA β-Gal) (Dimri G P. Cancer Cell 2005; 7:505-512), and the expression of phospho (serine 15)-p53 p16, p21, and caspase 3 by western blot, immunofluorecence and RT-qPCR analysis. The level of 29 soluble factors in conditioned medium was quantified using the Luminex technology (Millipore, Molscheim, France).
# fibroblasts = assay: Cellular reactive oxygen species production (DCFH-DA assay) and oxidant signalling in PGE2-exposed fibroblasts; type: cell-based, human; details: for increase in ROS, and SA β-gal and p21 expression induced by PGE2: 24 h pre-treatment of fibroblasts
# Procedure: as §1
# (§3) PGE2 was quantified by using the Prostaglandin E2 monoclonal EIA kit (Bertin Pharma, Montigny le Bretonneux, France). PGE2 receptors and enzymes involved in PGE2 synthesis were quantified by RT-qPCR. Cellular reactive oxygen species production was quantified by the DCFH-DA assay (Carter W et al., J Leukoc Biol 1994; 55:253-258).
# S-C and COPD fibroblasts = assay: Replicative senescence of S-C and COPD fibroblasts during successive passages (repeated PGE2 exposure or COX inhibitors); type: cell-based, human
# Procedure: as §1, §2
# Finally, the inventors investigated if endogenous PGE2 was involved in replicative senescence.
# [1] = test system: lung mRNA expression of senescence markers and cytokines; assay: Intratracheal instillation of PGE2 in mice, lung mRNA expression of senescence markers and cytokines; type: in vivo
# Procedure: Male 8-week-old mice of C57BL/6 background and p53−/− animals (kindly provided by Tyler Jacks, MIT, Cambridge) were intratracheally instilled with either PGE2 (1 ng·ml^−1) or vehicle (DMSO 1/10000). Instilled volume was 50 μl. Twenty-four and 48 h after instillation mice were sacrificed and analysis of lung mRNA expression of senescence markers and cytokines were performed. Studies were conducted in compliance with INSERM guidelines regarding the fair treatment of animals.
# human dermal fibroblasts = details: Yang H H et al., Biogerontology 2011; cited from earlier work
# PGE2 = PGE2 quantification in fibroblast culture/conditioned medium (Prostaglandin E2 monoclonal EIA kit); type: cell-based, human; details: for reduction of the levels of PGE2 in CM: treatment of fibroblasts with COX inhibitors
# Procedure: as §1, §3
# [2] = test system: Non-senescent fibroblasts from S-C and COPD patients (target fibroblasts); assay: Paracrine senescence: target fibroblasts incubated 24 h with conditioned medium (CM) from senescent fibroblasts; type: cell-based, human
# Procedure: as §1, §2
# Non-senescent fibroblasts from S-C and COPD patients (further called target fibroblasts) were incubated 24 h with conditioned medium (CM) from cells of the respective groups obtained at non-senescent and senescent passages. […] Both S-C and COPD CM obtained at senescent passage increased the percentage SA-β gal, phospho (serine 15)-p53, p21, and p16 protein expression, as well as IL-6, IL-8, MCP-1 and FGF-2 mRNA expression in target cells.
# [3] = COPD fibroblasts, both antagonists (EP2 + EP4) used simultaneously, versus one antagonist
# [4] = COPD fibroblasts, one antagonist alone (10 μM), PGE2 10 ng·ml−1
# [5] = repeated exposures to PGE2 at 1 ng·ml−1, passage 3 to 9
# [6] = repeated exposures to PGE2 at 1 ng·ml−1, passage 3 to 9, S-C and COPD fibroblasts, greater in COPD
# [7] = wild type mice, single intra-tracheal instillation
# [8] = pre-treatment of target fibroblasts
structure (smiles),measurement,setting,value
CC(C)Oc1ccc2c(=O)c3cc(C(=O)O)ccc3oc2c1 [AH6809],PGE2-induced SA β-gal and p21 expression,Primary lung fibroblasts; [3],small but significant higher effect
same,PGE2-induced SA β-gal and p21 expression,Primary lung fibroblasts; [4],significantly reduced
same,PGE2-induced SA-β gal and p21 expression,Primary lung fibroblasts; PGE2 10 ng·ml−1,only the simultaneous application of both antagonists decreased
same,"increase in IL-6, CX3CL1, FGF2, VEGF, MMP2 and TIMP2 induced by PGE2",Primary lung fibroblasts,both antagonists were needed to suppress
O=C1CC[C@H](/C=C/[C@@H](O)Cc2ccccc2)N1CCCCCCc1nn[nH]n1 [CAY10598],"SA β-gal and p21 expression (agonists, no PGE2)","Primary lung fibroblasts; COPD and control fibroblasts, both agonists (EP2 + EP4) used simultaneously, versus one agonist",small but significant higher effect
same,"SA β-gal and p21 expression (agonist alone, no PGE2)","Primary lung fibroblasts; COPD and control fibroblasts, one agonist",mimicked PGE2 effects
CCOc1c2c(c(OCC)c3ccccc13)C(=O)N(c1ccc(CC(=O)NS(=O)(=O)c3ccccc3)cc1)C2 [GW627368X],PGE2-induced SA β-gal and p21 expression,Primary lung fibroblasts; [3],small but significant higher effect
same,PGE2-induced SA β-gal and p21 expression,Primary lung fibroblasts; [4],significantly reduced
same,PGE2-induced SA-β gal and p21 expression,Primary lung fibroblasts; PGE2 10 ng·ml−1,only the simultaneous application of both antagonists decreased
same,"increase in IL-6, CX3CL1, FGF2, VEGF, MMP2 and TIMP2 induced by PGE2",Primary lung fibroblasts,both antagonists were needed to suppress
CC(=O)N[C@@H](CS)C(=O)O [N-acetyl-cysteine],"increase in ROS, and SA β-gal and p21 expression induced by PGE2",fibroblasts,significantly reduced
"CCCCC[C@H](O)/C=C/[C@H]1[C@H](O)CC(=O)[C@@H]1C/C=C\CCCC(=O)O [PGE2, prostaglandin E2]",activation of the DNA damage-activated transcription factor ATM,"fibroblasts; PGE2-exposed COPD cells, single exposure",No activation
same,concentration of intracellular ROS and expression of the oxidant-sensitive protein HO-1,fibroblasts; fibroblasts incubated with PGE2,increased in a dose-dependent manner only in fibroblasts from COPD patients
same,expression of phosphorylated-ATM,"S-C and COPD fibroblasts; COPD fibroblasts, repeated exposure to PGE2",enhanced
same,expression of MCP3,S-C and COPD fibroblasts; [5],not modified
same,reduction in telomeres length,S-C and COPD fibroblasts; [5],did not modify
same,"induction of SA-β gal, p21, p16, COX2 and HO-1 expression, and levels of IL-6, IL-8, GRO, VEGF and CX3CL",S-C and COPD fibroblasts; [6],enhanced
same,senescence-associated cumulative PDL,S-C and COPD fibroblasts; [6],further reduced
same,COX2 mRNA levels,"[1]; mice, at 48 h",increased
same,induction of p21 and inflammatory mediators,[1]; p53−/− mice,not observed
same,p16 expression in lung,[1]; [7],no change
same,"pulmonary expression of inflammatory mediators (IL-6, CX3CL1, FGF2, VEGF, MMP2)",[1]; [7],induced
same,pulmonary expression of p53 and p21,"[1]; wild type mice, single intra-tracheal instillation, at 24 h and 48 h respectively",induced
same,cleaved caspase-3 (and phosphatidyl serine residues),Primary lung fibroblasts; fibroblasts of the three groups of patients after PGE2,absence
same,"percentage of cells expressing SA β-gal, p21 and p16 protein","Primary lung fibroblasts; non-senescent NS-C, S-C and COPD fibroblasts, 24 h incubation with PGE2 (0.5 to 50 ng ml−1), higher in COPD",dose-response increase
same,"levels of IL-6, CX3CL1, VEGF, FGF2, MMP-2 and TIMP-2 in cell culture supernatant","Primary lung fibroblasts; non-senescent fibroblasts, 24 h incubation with PGE2, higher in COPD",increase
same,concentration from which the effect of PGE2 (aggravated replicative senescence) was observed,human dermal fibroblasts,≥ 5 µM
same,synthesis of endogenous PGE2,PGE2; fibroblasts exposed to exogenous PGE2,induced
Cc1ccc(-c2cc(C(F)(F)F)nn2-c2ccc(S(N)(=O)=O)cc2)cc1 [celecoxib],reduction of the levels of PGE2 in CM,PGE2,60%
COc1ccc2c(c1)c(CC(=O)O)c(C)n2C(=O)c1ccc(Cl)cc1 [indomethacin],"increase in ROS, and SA β-gal and p21 expression induced by PGE2",fibroblasts,significantly reduced
same,percentage of SA β-gal positive cells and p21 protein expression,[2]; target cells incubated with CM from fibroblasts treated with COX inhibitor,parallel significant reduction
same,reduction of the levels of PGE2 in CM,PGE2,60%
Cc1ccc(C(=O)Cn2c3c(sc2=N)CCCC3)cc1 [pifithrin-α],PGE2-induced SA β-gal and p21 expression,Primary lung fibroblasts; COPD and control fibroblasts,completely prevented
same,"increase in IL6, CX3CL1, MMP-2 and TIMP-2 levels induced by PGE2",Primary lung fibroblasts; control and COPD fibroblasts,completely prevented
same,increase in p16 induced by PGE2,Primary lung fibroblasts; control and COPD fibroblasts,without modification
same,increase in FGF-2 mRNA expression induced by CM,[2]; [8],not modified
same,"increase in IL-6, IL-8 and MCP-1 mRNA expression induced by CM",[2]; [8],suppressed
same,increase in SA β-gal positive cells and induction of p21 protein by S-C and COPD senescent CM,[2]; [8],suppressed
